Measured values taken from patent publication US7199112B2, “Use of phospholipid arachidonic acids for increasing muscle mass in humans” (priority 2005, dated 2007).

Columns and labels:
[1] = system: adrenocorticotropin (ACTH) and cortisol response; conditions: intravenous infusion; cited from earlier work
[2] = system: lean skeletal muscle mass; conditions: peroral, humans, clinical study by the inventor
[3] = system: IGF-1 response; conditions: certain cell studies; cited from earlier work
[4] = system: intestinal transport of certain nutrients; conditions: cited from earlier work

Substance	increasing lean skeletal muscle mass [2]	also measured
Phosphatidylserine		adrenocorticotropin (ACTH) and cortisol response to stressful exercise [1]: significantly suppresses
phosphatidylserine arachidonic acid	effective	
lysophosphatidylcholine arachidonic acid	effective	
Phosphatidylcholine		IGF-1 response [3]: exert an IGF-1 response
phosphatidylcholine arachidonic acid	effective	
Lysophosphatidylcholine		intestinal transport of certain nutrients [4]: increases
